Legend:
HL-60 = experiment: Tested for inhibition against leukemic HL-60 (human cancer) cell lines; type: functional, cell-based
MDA-MB-468 = experiment: Tested for inhibition against mammary cancer MDA-MB 468 (breast carcinoma) cell lines; type: functional, cell-based; settings: Homo sapiens

For CISPLATIN, which ID50 (HL-60) is on record?
Its ID50 is 2300 nM.

What about the ID50 (MDA-MB-468) of the same sequence?
The ID50 was 3300 nM.
